Laboratory results as given in patent publication US8846750B2, “Pharmaceutical and food compositions for preventing or treating diabetes or obesity” (Korea Ocean Research and Development Institute, priority 2010, dated 2014).

How the values were obtained:
Solubility in water = assay type: physicochemical; conditions: dissolved in water
Protocol: 10 mg (22 umol) of the lobaric acid obtained in Example 1-2 was dissolved in 3 ml of acetone, and 50 ul of 1M NaHCO3 was added thereto, followed by stirring for 1-2 minutes. The solid precipitated on adding the NaHCO3 was filtered out, immediately after which it was completely concentrated by a rotary evaporator. After completion of the concentration, sodium lobarate (<10 mg) could be obtained as a white solid. Then, in order to remove excess salt from the product to increase the purity, the product was analyzed by reverse phase HPLC using Agilent Eclipse XDB-C18 column (4.6×150 mm, USA). The solvent system used in the analysis was composed of line A and line B which supplied 0.1% formic acid-containing water and 0.1% formic acid-containing acetonitrile, respectively. The elution conditions were as follows: 40% to 50% acetonitrile for 5 min; 50% to 80% acetonitrile for 15 min; and 80% to 90% acetonitrile for 10 min. The final purity was 92.1% (see FIG. 1).

TC-PTP (PTPN2) = biological target: T1, TC-PTP (PTPN2) (Homo sapiens, UniProt P17706); experiment: Selectivity for protein tyrosine phosphatases: TC-PTP (PTPN2); assay type: biochemical; conditions: 0, 50, 100 or 200 nM tested
T1 construct: purchased Bioneer, Korea
T1 sequence (P17706 1-415): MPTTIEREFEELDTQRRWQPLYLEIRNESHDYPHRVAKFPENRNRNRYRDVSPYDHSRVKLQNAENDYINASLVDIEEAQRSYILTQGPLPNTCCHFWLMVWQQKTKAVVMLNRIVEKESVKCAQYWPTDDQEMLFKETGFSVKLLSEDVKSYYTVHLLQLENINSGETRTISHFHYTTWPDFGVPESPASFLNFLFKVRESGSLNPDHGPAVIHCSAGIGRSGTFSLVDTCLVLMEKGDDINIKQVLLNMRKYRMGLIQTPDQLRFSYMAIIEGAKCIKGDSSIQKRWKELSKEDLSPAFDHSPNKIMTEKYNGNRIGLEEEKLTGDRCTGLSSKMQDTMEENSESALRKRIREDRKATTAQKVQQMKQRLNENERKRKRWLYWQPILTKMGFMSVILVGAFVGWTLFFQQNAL
Protocol: In order to examine the selectivity of sodium lobarate for protein tyrosine phosphatases, the inhibitory activities of sodium lobarate against PTP-1b, PTPN2, PTPN5, PTPN6, PTPN7 and PTPN13 were examined by spectroscopically measuring the activities of the enzymes.
Specifically, to 0.5 mg/Ml of PTP-1b, PTPN2, PTPN5, PTPN6, PTPN7 or PTPN13 (Bioneer, Korea) in protein tyrosine phosphatase buffer (20 mM Tris-Hcl, pH 8.0, 0.75 mM NaCl, 0.5 mM EDTA, 5 mM β-mercaptoethanol, 50% glycerol), 0, 50, 100 or 200 nM sodium lobarate and the substrate [pTyr1146] insulin receptor (1142-1153, Sigma, USA) were added. Then, each of the mixtures was allowed to react at room temperature for 10-30 minutes, and then malachite green-molybdate dye solution (Sigma, USA) was added thereto and reacted at room temperature for 10 minutes. After completion of the reaction with the substrate, the absorbance at 620 nm was measured. […]
Specifically, to 0.5 mg/Ml of PTP-1b, PTPN2, PTPN5, PTPN6, PTPN7 or PTPN13 (Bioneer, Korea) in protein tyrosine phosphatase buffer (20 mM Tris-Hcl, pH 8.0, 0.75 mM NaCl, 0.5 mM EDTA, 5 mM β-mercaptoethanol, 50% glycerol), 0, 50, 100 or 200 nM Lobarin and the substrate [pTyr1146] insulin receptor (1142-1153, Sigma, USA) were added. […] After completion of the reaction with the substrate, the absorbance at 620 nm was measured. […]

| Compound | water solubility (Solubility in water) | inhibitory activity against TC-PTP (PTPN2) (TC-PTP (PTPN2)) |
| --- | --- | --- |
| CCCCCc1c2c(cc(O)c1C(=O)[O-])OC(=O)c1c(cc(OC)cc1C(=O)CCCC)O2.[Na+] [sodium lobarate] | water-soluble | – |
| CCC/C=C1/OC(=O)c2c(Oc3c(O)cc(O)c(C(=O)O)c3CCCCC)cc(OC)cc21 [Lobarstin] | – | no inhibitory activity |
| CCCCCc1c(Oc2cc(OC)cc3c2C(=O)OC3(O)CCCC)c(O)cc(O)c1C(=O)O (stereo not drawn) [Lobarin] | – | no inhibitory activity |
